Measurements published in US20180085392A1, “CYCLODEXTRIN COMPOUNDS FOR THE PREVENTION AND TREATMENT OF AGING” (SENS RESEARCH FOUNDATION, INC., priority 2015, published 2018).
Several values for one entry are separate records, joined by “and”; a condition that tells them apart may be missing. Equal entries are not always repeated.

What was measured:
[1] = system: NC and PC cell populations; assay: Cell survival after exposure to lysomotropic agent MSDH; type: cell-based; details: for cell survival after MSDH: 45 μM MSDH for 42 hours; for cell death after MSDH: 55 μM MSDH for 42 hours
Method: To further elucidate the mechanism by which cyclodextrin can decrease the concentration of lipofuscin in cells, an assay in which the lysomotropic agent MSDH was administered to cells in order to measure the effect of cyclodextrin administration on cellular health post-MSDH treatment was performed (FIG. 13A-D and FIG. 14A-D). FIG. 13A-D provides representative photomicrographs of NC, PC, NC w/CD, and PC w/CD cell populations after 42 hours of exposure to 45 μM of MSDH. […] FIG. 14A-D provides representative photomicrographs of NC (FIG. 14A), PC (FIG. 14B), NC w/CD (FIG. 14C), and PC w/CD (FIG. 14D) cell populations, respectively, after the populations were exposed to an increased level of MSDH for an increased […] (55 μM for 42 hours). […] The results of FIG. 14A-D were indicative of different degrees of lysosomal membrane cholesterol composition change pending cyclodextrin treatment and lipofuscin levels, with the aged lipofuscin loaded cells treated with cyclodextrin being the most resistant to MSDH treatment (FIG. 14D).

fibroblasts [2] = assay: Fluorescence imaging of native lipofuscin in fibroblasts; type: cell-based; details: for native lipofuscin autofluorescence versus untreated cells: fibroblasts maintained 16 days, cyclodextrin during days 1-8 (FIG. 7A-B)
Method: Healthy fibroblasts were passaged (˜P25) and grown to confluency in media. The cells in FIG. 7A (“untreated”) were maintained for 16 days; likewise, the cells in FIG. 7B (“treated”) were maintained for 16 days, however, cyclodextrin was added to the treated cells during days 1-8. Following the 16 day period of cell maintenance, lipofuscin levels were observed using fluorescence imaging as lipofuscin appears as a bright red autofluorescent material during fluorescence-based imaging. […] In order to ascertain whether or not the untreated or treated fibroblasts appeared healthy after the 16 day period of maintenance, both the untreated and treated fibroblasts were imaged with 60× magnification using light microscopy.

human skin fibroblasts = assay: CCK-8 cell viability assay; type: cell-based; details: days 4, 7 and 10; NC+CD and T versus NC and PC
Method: In order to determine whether cells were still viable when treated with cyclodextrin, a CCK-8 assay was performed on cells (human skin fibroblasts, Coriell Cell Repositories, Catalog #GM00498) over the course of a 10 days period (FIG. 8). On each day 4, day 7, and day 10, the viability of the cells was ascertained through a CCK-8 assay whereby colorimetric change was indicative of change in the cell viability status. The cell populations tested on day 4, day 7, and day 10 were healthy negative control cells (NC), healthy cells treated with cyclodextrin (NC+CD), lipofuscin loaded cells (PC), and lipofuscin loaded cells treated with cyclodextrin (T). […] FIG. 8 also presents blanks that were used as controls (the blanks appear circled in red in FIG. 8).

[3] = system: lipofuscin loaded cells (PC cells) (human skin fibroblasts); assay: Autofluorescence of lipofuscin loaded cells (removal of pre-existing lipofuscin); type: cell-based; details: PC cells treated day 5 to day 10 and further 48 hours; untreated 13%; p 0.05
Method: FIG. 6 provides representative quantified data of the autofluorescence of lipofuscin loaded cells (PC cells) (human skin fibroblasts, Coriell Cell Repositories, Catalog #GM00498) either untreated or treated with CD in order to track the removal of lipofuscin already present within the PC cells. To perform the assay, PC cells were allowed to grow for 5 days, and the PC cells were treated such that lipofuscin was produced only from day 1 through […]. After 5 days, one population of cells (“treated population”, PC+cyclodextrin in FIG. 6) was treated with cyclodextrin from day 5 to day 10, whereas a second population of cells (“untreated population”, PC only in FIG. 6) remained untreated from day 5 to day 10. On day 10, lipofuscin levels were measured for both cell populations. Following this measurement, the untreated population was placed in media only for 48 hours whereas the treated population was placed in media containing cyclodextrin for 48 hours. 48 hours following this transfer of the cell populations to their respective media, the lipofuscin levels of both the untreated and treated populations were again measured. […] The p-value comparing the percentage differences between the treated and untreated populations was 0.05. […]

ULK1 = assay: RT-PCR analysis of major lysosome genes; type: cell-based; details: NC w/CD and PC w/CD at day 10 compared to PC
Method: (§1) To address the mechanisms by which cyclodextrin treatment can remove lipofuscin from cells, a RT-PCR analysis of major lysosome genes was performed (FIG. 9). Healthy cells treated with cyclodextrin (“NC w/CD”), lipofuscin loaded cells (“PC”), and lipofuscin loaded cells treated with cyclodextrin (“PC w/CD”) were maintained for 10 days. Following the 10 day period, RT-PCR was performed on each cell population in order to ascertain the regulation status of the major lysosome genes ULK1, TFEB, and HMOX.

TFEB = assay: RT-PCR analysis of major lysosome genes; type: cell-based; details: NC w/CD and PC w/CD at day 10 compared to PC
Method: as §1

THP-1 cells = assay: Acridine orange uptake assay for lysosomal membrane permeabilization; type: cell-based
Method: To prepare FIG. 3A-B, THP-1 cells were exposed to different LDL treatments over 7 days and then assessed for lysosomal membrane permeabilization using an acridine orange uptake assay. In FIG. 3A: Acridine orange was excited at 488 nm and emissions recorded at 633 and 520 nm. Higher signal intensities at 520 nm and lower intensities at 633 nm were indicative of lysosomal instability. 7KC-LDL induced lysosomal membrane permeabilization that was attenuated by HβCD that was added to samples on day 6. In FIG. 3B: Flow cytometry signal are presented as intensities as a percent of control (normal LDL-treated). […] Although both the 633 nm and 520 nm signal intensities decreased after HβCD amendment for oxLDL and 7KC-LDL, the decrease in the 520 nm signal was of greater magnitude, thereby indicating increased lysosomal stability.

[4] = system: human skin cells (human fibroblast cells); assay: Flow cytometry of non-bisretinoid lipofuscin content per cell; type: cell-based; details: for total non-bisretinoid lipofuscin content, Average / total non-bisretinoid lipofuscin content, individual samples 1-4: 2HPβCD for five days
Source text: Table 3 and FIG. 4 presents data obtained from the treatment of human fibroblast cells with 10 rng/ml 2HPβCD for five days.
The values of Table 3 represent total non-bisretinoid lipofuscin content measured in fluorescent units per cell using a BD FACSCANTO™ II flow cytometer (BD Biosciences, San Jose, Calif.). Measurements were made with a 488 nm blue argon laser with a 530/30 nm FITC band pass filter. The total cell population size for each individual sample measurement was n>15,000 cells.

[5] = system: cholesterol present in a cell population; assay: Filipin staining of cellular cholesterol; type: cell-based; details: for cholesterol content of cells by filipin stain: after 4 days of maintenance, 100× (FIG. 11A-D)
Method: To further address the mechanism by which cyclodextrin treatment can decrease the concentration of lipofuscin in cells, filipin staining experiments were performed (FIG. 10A-D, FIG. 11A-D, and FIG. 12A-D). Filipin stain can be used to visualize the cholesterol present in a cell population. FIG. 10A and FIG. 10C provide representative photomicrographs of two different cell populations before confluency. Four days after the time the micrographs in FIG. 10A and FIG. 10C were produced, a filipin stain was applied to both cell populations (FIG. 10B and FIG. 10D), however, in the case of FIG. 10D, the cell population was treated with cyclodextrin for 3.5 hours before the filipin staining procedure. […] In order to measure the effects of long term cyclodextrin treatment, untreated healthy cells (NC), healthy cells treated with cyclodextrin (NC w/CD), untreated cells loaded with lipofuscin (PC), and cells loaded with lipofuscin and treated with cyclodextrin (PC w/CD) were filipin stained and imaged at 100× magnification after 4 days of maintenance (FIG. 11A-D) and were filipin stained and imaged at 200× magnification after 9 days of cell maintenance (FIG. 12A-D).

fibroblasts [6] = assay: Confocal microscopy of lipofuscin in fibroblasts; type: cell-based; details: after 8 days (FIG. 5)
Source text: FIG. 5 provides representative confocal photomicrographs wherein the accumulation of lipofuscin in fibroblasts that were either treated with HPβCD or were not treated with HPβCD was fluorescently imaged over the course of 8 days.

cultured cells = details: cited from earlier work
[7] = Aged Human Skin Cells + 2-HPCD (Test)
[8] = Human Skin Cells + 2-HPCD (Negative Control + Drug)

2-hydroxypropyl-β-cyclodextrin [HPβCD]
cell survival after MSDH ([1]; NC w/CD (healthy cells), untreated NC killed): able to survive | cell death after MSDH ([1]; NC w/CD (healthy cells), untreated NC complete death): moderate death | cell survival after MSDH ([1]; PC w/CD (lipofuscin loaded cells)): able to survive | cell death after MSDH ([1]; PC w/CD (lipofuscin loaded cells), untreated PC moderate death): no death | appearance of treated fibroblasts by light microscopy (fibroblasts [2]; after 16 day period, 60× magnification (FIG. 7C-D)): appeared to be healthy | native lipofuscin autofluorescence versus untreated cells (fibroblasts [2]): visibly decreased | native lipofuscin autofluorescence versus untreated cells (fibroblasts [2]; listed as cyclodextrin): significantly reduced | cell viability, colorimetric change in CCK-8 assay (human skin fibroblasts): no visible colorimetric difference | decrease in autofluorescence from day 10 to day 12 [3]: 23% | regulation of ULK1 (ULK1): no upregulation | regulation of TFEB (TFEB): no upregulation | lysosomal destabilization/permeability caused by 7-ketocholesterol (7KC-LDL) (THP-1 cells; LDL treatments over 7 days, HβCD added on day 6 (FIG. 3A)): attenuated | 633 nm/520 nm ratio of acridine orange signal (THP-1 cells; nLDL, oxLDL and 7KC-LDL (FIG. 3B)): improved | total non-bisretinoid lipofuscin content, Average [4, 7]: 6131 fluorescent units per cell | total non-bisretinoid lipofuscin content, individual samples 1-4 [4, 7]: 6278 fluorescent units per cell and 6453 fluorescent units per cell and 5982 fluorescent units per cell and 5809 fluorescent units per cell | total non-bisretinoid lipofuscin content, Average [4, 8]: 2600 fluorescent units per cell | total non-bisretinoid lipofuscin content, individual samples 1-4 [4, 8]: 2552 fluorescent units per cell and 2564 fluorescent units per cell and 2638 fluorescent units per cell and 2647 fluorescent units per cell | lipofuscin levels by flow cytometry fluorescence (in words) ([4]; aged human skin cells, 5-day treatment (FIG. 4)): decreased | reduction of non-bisretinoid lipofuscin ([4]; aged human skin cells, 5-day treatment, p<0.00001): 31.4% | cholesterol content of cells by filipin stain [5]: increased | cholesterol content of cells by filipin stain ([5]; listed as cyclodextrin): reduction of the cholesterol content | overall cellular levels of cholesterol by filipin stain ([5]; long term treatment, after 9 days of maintenance, 200× (FIG. 12A-D)): increase the overall cellular levels of cholesterol | total cholesterol by filipin stain ([5]; treated for 3.5 hours before staining (FIG. 10D vs 10B)): reduction in total cholesterol | lipopigment accumulation (fluorescence) versus untreated fibroblasts (fibroblasts [6]): lower lipopigment accumulation

methyl-β-cyclodextrin [MβCD]
efficiency of cholesterol removal compared with β-cyclodextrin (cultured cells): more efficient
